For seven cell lines, relative viability results are on record in the supplement of paper PMC10307832.

Assay in all cases: relative viability (nuclei count vs DMSO), 5 days (fraction); higher = more cells survive
Compound in the test “Shikonin + Lapatinib”: CC(C)=CC[C@@H](O)C1=CC(=O)c2c(O)ccc(O)c2C1=O [Shikonin] + CS(=O)(=O)CCNCc1ccc(-c2ccc3ncnc(Nc4ccc(OCc5cccc(F)c5)c(Cl)c4)c3c2)o1 [Lapatinib] (partner 2 µM)
The method, boiled down:
(§1)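 One day after seeding in 1536-well plates, lung cancer cell lines were dosed by pin tool. Dosing was either single-drug or a fixed anchor-drug dose plus five library-drug doses (not always all listed) in √10 steps. After 5 days, nuclei were stained in one fix-and-stain step and counted on 4× images, and relative viability is the nuclei count of treated wells over that of vehicle wells, given as the median of duplicate plates.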

Compound in test [1]: CC(C)N(CCCNC(=O)Nc1ccc(C(C)(C)C)cc1)C[C@H]1O[C@@H](n2ccc3c(N)ncnc32)[C@H](O)[C@@H]1O + C[C@@H](Oc1cc(-c2cnn(C3CCNCC3)c2)cnc1N)c1c(Cl)ccc(F)c1Cl [Crizotinib] (partner 1 µM)
The method, boiled down: as §1

Compound in test [2]: CC(C)N(CCCNC(=O)Nc1ccc(C(C)(C)C)cc1)C[C@H]1O[C@@H](n2ccc3c(N)ncnc32)[C@H](O)[C@@H]1O + Nc1ncn([C@H]2C[C@H](O)[C@@H](CO)O2)c(=O)n1 [Decitabine] (partner 2 µM)
The method, boiled down:
as §1

Compound in test [3]: CC(C)N(CCCNC(=O)Nc1ccc(C(C)(C)C)cc1)C[C@H]1O[C@@H](n2ccc3c(N)ncnc32)[C@H](O)[C@@H]1O + O=C(c1cc(Cc2n[nH]c(=O)c3ccccc23)ccc1F)N1CCN(C(=O)C2CC2)CC1 [Olaparib] (partner 8 µM)
The method, boiled down:
as §1

Take NCI-H1944: the relative viability came to 0.89 with Shikonin + Lapatinib (first compound 0.01 µM); 0.894 with Shikonin + Lapatinib (first compound 0.1 µM); 0.789 in the test with Shikonin + Lapatinib (first compound 0.3162 µM); 0.933 in the test with Shikonin + Lapatinib (first compound 1 µM); 1.09 in test [1] (first compound 0.08 µM); 1.09 in test [1] (first compound 0.253 µM). The relative viability in test [1] (first compound 0.8 µM) worked out at 1.14; in test [1] (first compound 2.53 µM), 1.13; in test [1] (first compound 8 µM) it was 1.1; in test [2] (first compound 0.08 µM), 0.451; in test [2] (first compound 0.253 µM), 0.438; in test [2] (first compound 0.8 µM), 0.471. Besides, the relative viability in test [2] (first compound 2.53 µM) was 0.394; in test [2] (first compound 8 µM), 0.423; in test [3] (first compound 0.08 µM), 0.416; in test [3] (first compound 0.253 µM), 0.409; in test [3] (first compound 0.8 µM), 0.413; in test [3] (first compound 2.53 µM), 0.41. Further, the relative viability in test [3] (first compound 8 µM) is 0.403.

NCI-H1975: the relative viability is 0.871 with Shikonin + Lapatinib (first compound 0.01 µM); 1.17 with Shikonin + Lapatinib (first compound 0.1 µM); 0.859 with Shikonin + Lapatinib (first compound 0.3162 µM); 0.896 with Shikonin + Lapatinib (first compound 1 µM); 0.895 in test [1] (first compound 0.08 µM); 0.867 in test [1] (first compound 0.253 µM). Further, the relative viability in test [1] (first compound 0.8 µM) came to 0.879; in test [1] (first compound 2.53 µM), 0.806; in test [1] (first compound 8 µM) it was 0.839; in test [2] (first compound 0.08 µM), 0.367; in test [2] (first compound 0.253 µM) it was 0.44; in test [2] (first compound 0.8 µM) it was 0.273. Besides, the relative viability in test [2] (first compound 2.53 µM) is 0.354; in test [2] (first compound 8 µM) it was 0.376; in test [3] (first compound 0.08 µM), 0.745; in test [3] (first compound 0.253 µM), 0.82; in test [3] (first compound 0.8 µM), 0.68; in test [3] (first compound 2.53 µM) it was 0.649. In addition, the relative viability in test [3] (first compound 8 µM) came to 0.538.

As to NCI-H1993, the relative viability with Shikonin + Lapatinib (first compound 0.1 µM) came out at 0.806; in the test with Shikonin + Lapatinib (first compound 0.3162 µM), 0.711; in the test with Shikonin + Lapatinib (first compound 1 µM) it was 0.921; in test [1] (first compound 0.08 µM), 0.767; in test [1] (first compound 0.253 µM), 0.935; in test [1] (first compound 0.8 µM) it was 0.877. The relative viability in test [1] (first compound 2.53 µM) stood at 0.841; in test [1] (first compound 8 µM), 0.888; in test [2] (first compound 0.08 µM), 0.482; in test [2] (first compound 0.8 µM), 0.564; in test [2] (first compound 2.53 µM), 0.6; in test [2] (first compound 8 µM), 0.559. Besides, the relative viability in test [3] (first compound 0.08 µM) turned out to be 1.06; in test [3] (first compound 0.8 µM) it was 1.07; in test [3] (first compound 2.53 µM), 1.01; in test [3] (first compound 8 µM), 1.01.

In the case of NCI-H2009, the relative viability amounted to 1.02 with Shikonin + Lapatinib (first compound 0.01 µM); 0.894 with Shikonin + Lapatinib (first compound 0.1 µM); 0.923 with Shikonin + Lapatinib (first compound 0.3162 µM); 0.498 with Shikonin + Lapatinib (first compound 1 µM); 1.03 in test [1] (first compound 0.08 µM); 0.971 in test [1] (first compound 0.253 µM). Besides, the relative viability in test [1] (first compound 0.8 µM) was found to be 1.08; in test [1] (first compound 2.53 µM), 0.999; in test [1] (first compound 8 µM), 1.08; in test [2] (first compound 0.08 µM), 0.476; in test [2] (first compound 0.253 µM), 0.418; in test [2] (first compound 0.8 µM) it was 0.438. The relative viability in test [2] (first compound 2.53 µM) worked out at 0.39; in test [2] (first compound 8 µM) it was 0.372; in test [3] (first compound 0.08 µM), 0.723; in test [3] (first compound 0.253 µM), 0.643; in test [3] (first compound 0.8 µM) it was 0.644; in test [3] (first compound 2.53 µM), 0.629. Further, in test [3] (first compound 8 µM), the relative viability was 0.64.

Regarding NCI-H2023, the relative viability with Shikonin + Lapatinib (first compound 0.01 µM) came out at 0.806; in the test with Shikonin + Lapatinib (first compound 0.1 µM), 1.14; with Shikonin + Lapatinib (first compound 0.3162 µM) it was 1.02; in the test with Shikonin + Lapatinib (first compound 1 µM) it was 0.867; in test [1] (first compound 0.08 µM), 0.753; in test [1] (first compound 0.253 µM) it was 0.733. Further, the relative viability in test [1] (first compound 0.8 µM) was determined as 0.859; in test [1] (first compound 2.53 µM) it was 0.755; in test [1] (first compound 8 µM) it was 0.751; in test [2] (first compound 0.08 µM) it was 0.256; in test [2] (first compound 0.253 µM) it was 0.25; in test [2] (first compound 0.8 µM), 0.242. For the same cell line, the relative viability amounted to 0.205 in test [2] (first compound 2.53 µM); 0.191 in test [2] (first compound 8 µM); 0.491 in test [3] (first compound 0.08 µM); 0.458 in test [3] (first compound 0.253 µM); 0.458 in test [3] (first compound 0.8 µM); 0.446 in test [3] (first compound 2.53 µM). The relative viability in test [3] (first compound 8 µM) was 0.43.

Consider NCI-H2085, for which the relative viability was 0.767 with Shikonin + Lapatinib (first compound 0.01 µM); 0.727 in the test with Shikonin + Lapatinib (first compound 0.1 µM); 0.718 in the test with Shikonin + Lapatinib (first compound 0.3162 µM); 0.774 with Shikonin + Lapatinib (first compound 1 µM); 0.764 in test [1] (first compound 0.08 µM); 0.884 in test [1] (first compound 0.253 µM). The relative viability came out at 0.99 in test [1] (first compound 0.8 µM); 0.836 in test [1] (first compound 2.53 µM); 0.785 in test [1] (first compound 8 µM); 0.55 in test [2] (first compound 0.08 µM); 0.486 in test [2] (first compound 0.253 µM); 0.561 in test [2] (first compound 0.8 µM). For the same cell line, the relative viability came out at 0.542 in test [2] (first compound 2.53 µM); 0.546 in test [2] (first compound 8 µM); 0.749 in test [3] (first compound 0.08 µM); 0.834 in test [3] (first compound 0.253 µM); 0.873 in test [3] (first compound 0.8 µM); 0.867 in test [3] (first compound 2.53 µM). The relative viability in test [3] (first compound 8 µM) is 0.763.

As for NCI-H2087, the relative viability is 1.03 in the test with Shikonin + Lapatinib (first compound 0.01 µM); 1.38 with Shikonin + Lapatinib (first compound 0.1 µM); 1.15 with Shikonin + Lapatinib (first compound 0.3162 µM); 0.954 in the test with Shikonin + Lapatinib (first compound 1 µM); 0.981 in test [1] (first compound 0.08 µM); 1.04 in test [1] (first compound 0.253 µM). In addition, the relative viability in test [1] (first compound 0.8 µM) came to 1.16; in test [1] (first compound 2.53 µM), 0.945; in test [1] (first compound 8 µM), 0.795; in test [2] (first compound 0.08 µM), 0.272; in test [2] (first compound 0.253 µM) it was 0.303; in test [2] (first compound 0.8 µM) it was 0.232. For the same cell line, the relative viability came to 0.336 in test [2] (first compound 2.53 µM); 0.256 in test [2] (first compound 8 µM); 0.599 in test [3] (first compound 0.08 µM); 0.694 in test [3] (first compound 0.253 µM); 0.553 in test [3] (first compound 0.8 µM); 0.667 in test [3] (first compound 2.53 µM). In addition, in test [3] (first compound 8 µM), the relative viability is 0.581.
